Experimental data taken from patent US8338597B2, “Pyridones useful as inhibitors of kinases” (Vertex Pharmaceuticals Incorporated, priority 2004, dated 2012).
“And” between values parts separate entries of the source, which are not always exact repeats. Equal values may be shown once.

Assays:
Type in all cases: biochemical
Itk = target: T1, Itk (Homo sapiens, UniProt Q08881); assay: ITK inhibition assay, radioactive-phosphate incorporation; details: [γ-33P]ATP, SAM68 peptide, 25° C.
T1 sequence (Q08881 1-620): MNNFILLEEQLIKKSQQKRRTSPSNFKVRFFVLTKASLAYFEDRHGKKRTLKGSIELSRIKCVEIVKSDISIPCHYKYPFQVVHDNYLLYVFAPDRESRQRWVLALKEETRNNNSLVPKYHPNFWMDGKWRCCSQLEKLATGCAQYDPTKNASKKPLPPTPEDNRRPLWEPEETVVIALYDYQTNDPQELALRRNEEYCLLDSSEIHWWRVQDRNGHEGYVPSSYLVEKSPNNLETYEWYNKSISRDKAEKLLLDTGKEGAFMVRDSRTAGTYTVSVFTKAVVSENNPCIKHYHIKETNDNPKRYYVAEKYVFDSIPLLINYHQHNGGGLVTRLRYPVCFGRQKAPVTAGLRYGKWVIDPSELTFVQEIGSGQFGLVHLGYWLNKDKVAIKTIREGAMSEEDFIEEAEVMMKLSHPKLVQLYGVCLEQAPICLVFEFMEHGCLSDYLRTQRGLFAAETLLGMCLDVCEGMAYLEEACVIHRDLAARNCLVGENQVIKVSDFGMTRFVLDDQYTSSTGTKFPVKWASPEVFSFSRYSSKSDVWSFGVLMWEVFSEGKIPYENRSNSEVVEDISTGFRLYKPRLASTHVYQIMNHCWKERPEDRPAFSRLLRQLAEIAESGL

Btk = Btk (Homo sapiens, UniProt Q06187); assay: BTK inhibition assay, radioactive-phosphate incorporation; details: 50 μM [γ-33P]ATP, 25 nM Btk, 25° C.
Procedure: Compounds were screened for their ability to inhibit Btk using a radioactive-phosphate incorporation assay at Vertex Pharmaceuticals. Assays were carried out in a mixture of 20 mM MOPS (pH 7.0), 10 mM MgCl2, 0.1% BSA and 1 mM DTT. Final substrate concentrations in the assay were 50 μM [γ-33P]ATP (200mCi 33P ATP/mmol ATP, Amersham Pharmacia Biotech, Amersham, UK/Sigma Chemicals) and 2 μM peptide (SAM68 D332-443). Assays were carried out at 25° C. and in the presence of 25 nM Btk. An assay stock buffer solution was prepared containing all of the reagents listed above, with the exception of the peptide and the test compound of interest. 75 μL of the stock solution was placed in a 96 well plate followed by addition of 2 μL of DMSO stock containing serial dilutions of the test compound (typically starting from a final concentration of 15 μM) in duplicate (final DMSO concentration 2%). The plate was preincubated for 15 minutes at 25° C. and the reaction initiated by addition of 25 μL peptide (final concentration 2 μM). Background counts were determined by the addition of […] 0.2M phosphoric acid+0.01% TWEEN to control wells containing assay stock buffer and DMSO prior to initiation with peptide.
The reaction was stopped after 10 minutes by the addition of […] 0.2M phosphoric acid+0.01% TWEEN. A multiscreen phosphocellulose filter 96-well plate (Millipore, Cat no. MAPHN0B50) was pretreated with 100 μL 0.2M phosphoric acid+0.01% TWEEN 20 prior to the addition of […] of the stopped assay mixture. The plate was washed with 4×200 μL 0.2M phosphoric acid+0.01% TWEEN 20. After drying, 30 μL Optiphase ‘SuperMix’ liquid scintillation cocktail (Perkin Elmer) was added to the well prior to scintillation counting (1450 Microbeta Liquid Scintillation Counter, Wallac).
After removing mean background values for all of the data points, Ki(app) data were calculated from non-linear regression analysis using the Prism software package (GraphPad Prism version 3.0cx for Macintosh, GraphPad Software, San Diego Calif., USA).

Rlk = target: T2, Rlk (Homo sapiens, UniProt P42681); assay: RLK inhibition assay, standard coupled enzyme assay; details: 100 μM ATP, 40 nM Rlk, 30° C.
T2 sequence (P42681 1-527): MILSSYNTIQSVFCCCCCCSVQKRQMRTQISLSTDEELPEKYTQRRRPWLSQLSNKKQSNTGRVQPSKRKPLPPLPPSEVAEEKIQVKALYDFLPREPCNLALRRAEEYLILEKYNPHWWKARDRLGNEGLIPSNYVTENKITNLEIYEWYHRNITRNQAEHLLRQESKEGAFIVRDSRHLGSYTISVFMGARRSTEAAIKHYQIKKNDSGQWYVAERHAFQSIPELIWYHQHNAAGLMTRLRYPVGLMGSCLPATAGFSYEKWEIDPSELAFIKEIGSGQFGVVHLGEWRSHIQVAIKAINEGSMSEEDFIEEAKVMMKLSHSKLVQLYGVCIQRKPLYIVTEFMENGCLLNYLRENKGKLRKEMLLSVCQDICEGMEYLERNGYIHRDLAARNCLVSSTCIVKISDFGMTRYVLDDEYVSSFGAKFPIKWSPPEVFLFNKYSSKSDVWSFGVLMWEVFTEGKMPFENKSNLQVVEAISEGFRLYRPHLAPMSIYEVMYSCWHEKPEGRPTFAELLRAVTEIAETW
Procedure: Compounds were screened for their ability to inhibit Rlk using a standard coupled enzyme assay (Fox et al., Protein Sci., (1998) 7, 2249). Assays were carried out in a mixture of 20 mM MOPS (pH 7.0), 10 mM MgCl2, 0.1% BSA and 1 mM DTT. Final substrate concentrations in the assay were 100 μM ATP (Sigma Chemicals) and 10 μM peptide (Poly Glu:Tyr 4:1). Assays were carried out at 30° C. and in the presence of 40 nM Rlk. Final concentrations of the components of the coupled enzyme system were 2.5 mM phosphoenolpyruvate, 300 μM NADH, 30 μg/ml pyruvate kinase and 10 μg/ml lactate dehydrogenase.
An assay stock buffer solution was prepared containing all of the reagents listed above, with the exception of ATP and the test compound of interest. 60 μl of the stock solution was placed in a 96 well plate followed by addition of […] of DMSO stock containing serial dilutions of the test compound (typically starting from a final concentration of 7.5 μM). The plate was preincubated for 10 minutes at 30° C. and the reaction initiated by addition of 5 μl of ATP. Initial reaction rates were determined with a Molecular Devices SpectraMax Plus plate reader over a 10 minute time course. IC50 and Ki data were calculated from non-linear regression analysis using the Prism software package (GraphPad Prism version 3.0cx for Macintosh, GraphPad Software, San Diego Calif., USA).

Chain of Btk (Q06187 whole entry, species assumed): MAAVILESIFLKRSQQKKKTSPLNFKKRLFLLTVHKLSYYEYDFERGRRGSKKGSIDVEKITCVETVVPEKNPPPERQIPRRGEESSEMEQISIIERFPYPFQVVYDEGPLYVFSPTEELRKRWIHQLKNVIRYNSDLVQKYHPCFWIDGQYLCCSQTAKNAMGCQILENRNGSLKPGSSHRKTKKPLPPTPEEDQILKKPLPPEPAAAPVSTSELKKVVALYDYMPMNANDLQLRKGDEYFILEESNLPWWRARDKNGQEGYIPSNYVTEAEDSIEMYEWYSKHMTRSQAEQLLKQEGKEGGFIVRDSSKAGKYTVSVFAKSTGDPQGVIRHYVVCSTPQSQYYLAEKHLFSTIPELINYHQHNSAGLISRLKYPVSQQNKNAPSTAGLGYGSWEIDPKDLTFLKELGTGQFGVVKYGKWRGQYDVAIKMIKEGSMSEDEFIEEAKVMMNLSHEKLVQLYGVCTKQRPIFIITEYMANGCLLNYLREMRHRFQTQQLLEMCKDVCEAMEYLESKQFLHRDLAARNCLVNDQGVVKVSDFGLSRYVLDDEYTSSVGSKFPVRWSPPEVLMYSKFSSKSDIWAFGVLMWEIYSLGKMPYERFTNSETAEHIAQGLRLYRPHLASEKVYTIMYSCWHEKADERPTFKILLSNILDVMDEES

Ki (Itk) [µM] | Ki (Btk) | Ki (Rlk) [µM] | Compound
0.1 to 1 | > 0.5 µM | – | CNc1ccc(C)c(-c2c[nH]c(=O)c(NC(=O)c3ccc(C(C)(C)C)cc3)c2)c1 [II-43]
< 0.1 | < 0.5 µM | – | CNCCNc1cccc(-c2c[nH]c(=O)c(NC(=O)c3ccc(N4CCCCC4)cc3)c2)n1 [II-51]
< 0.1 | < 0.5 µM | – | CN(C)CCNc1nccc(-c2c[nH]c(=O)c(NC(=O)c3ccc(N4CCCCC4)cc3)c2)n1 [II-58]
0.1 to 1 | > 0.5 µM and < 0.5 µM | – | CN(C)CCN(C)c1nccc(-c2c[nH]c(=O)c(NC(=O)c3ccc(N4CCCCC4)cc3)c2)n1 [II-61]
< 0.1 | < 0.5 µM | – | CNCCNc1nccc(-c2c[nH]c(=O)c(NC(=O)c3ccc(N4CCCCC4)cc3)c2)n1 [II-63]
< 0.1 | < 0.5 µM | < 1 | CNc1nccc(-c2c[nH]c(=O)c(NC(=O)c3ccc(N4CCNCC4)cc3)c2)n1 [II-77]
< 0.1 | < 0.5 µM | < 1 | CNc1nccc(-c2c[nH]c(=O)c(NC(=O)c3ccc(N4CCN(C(C)C)CC4)cc3)c2)n1 [II-78]
< 0.1 | < 0.5 µM | < 1 | CNc1nccc(-c2c[nH]c(=O)c(NC(=O)c3ccc(N4CCC[C@H]4CN4CCCC4)cc3)c2)n1 [II-80]
< 0.1 | < 0.5 µM | < 1 | CC(C)(N)CNc1cccc(-c2c[nH]c(=O)c(NC(=O)c3ccc(N4CCCCC4)cc3)c2)n1 [II-112]
– | > 0.5 µM | > 1 | CNc1cncc(-c2c[nH]c(=O)c(NC(=O)c3ccc(N4CCCCC4)cc3)c2)n1 [II-114]
0.1 to 1 | > 0.5 µM | > 1 | CC(O)[C@@H](CO)Nc1cccc(-c2c[nH]c(=O)c(NC(=O)c3ccc(N4CCCCC4)cc3)c2)n1 (stereo partly drawn) [II-149]
